In patent US9910031B2, “Compositions and methods for modulating c-Rel-dependent cytokine production” (Synta Pharmaceuticals Corporation, priority 2003, dated 2018):

Legend:
NFκB = experiment: Gel-shift assay of NFκB binding to the IL-12 p40 promoter site, THP-1 nuclear extracts; type: cell-based, human; conditions: IFN-γ-primed, SAC-stimulated THP-1; 1 μM Compound 1 or 10 mM ASA
Method: (§1) Nuclear extracts were prepared from IFN-γ-primed THP-1 cells that had been treated with or without SAC and incubated in the presence or absence of 1 μM Compound 1 or 10 mM ASA. Isolation of nuclear extracts was accomplished by first suspending THP-1 cells in 20 volumes of buffer A containing 10 mM KCl, 10 mM HEPES (pH 7.9), 1 mM MgCl2, 1 mM dithiothreitol (DTT), 0.1% Nonidet p40 (NP-40), and 0.5 mM phenylmethylsulfonyl fluoride (PMSF) and then homogenizing and centrifuging at 10,000 rpm at 4° C. for 5 min. Nuclear pellets were then suspended in buffer C containing 400 mM NaCl, 20 mM HEPES pH 7.9), 15 mM MgCl2, 0.2 mM EDTA, 1 mM DTT, 25% glycerol, 1 mM PMSF, and 10 μg of leupeptin, 20 μg of pepstatin, and 10 μg of antipain per ml, incubated for 30 min at 4° C., and centrifuge at 14,000 rpm for […]. The supernatants were dialyzed against buffer D containing 100 mM NaCl, 20 mM HEPES (pH 7.9), 20% glycerol, 1 mM PMSF, and 1 mM DTT.
The extracts obtained from this process were used in gel-shift assays using oligonucleotides containing the NFκB target sequence corresponding to the region −121 to −102 from the transcription initiation site of IL-12 p40 or a mutated NFκB binding site. […] This interaction was specific as it was competed away by an excess of unlabeled probe, but not by a mutated oligonucleotide in which two base-pairs were substituted. […]

p65 = experiment: ELISA based transcriptional factor-DNA binding activity assay, THP-1 nuclear extracts, p65; type: cell-based, human; conditions: IFN-γ/LPS, 500 nm, 3 hrs
Method: as §1
To understand the action of Compound 2 in NF-κB binding, several NF-κB family members, p50, c-Rel and p65 were investigated using an ELISA based transcriptional factor-DNA binding activity assay system. […]

IL-12 p40 = IL-12 p40 inhibition after Toxoplasma antigen (STAg) versus IFN-γ/SAC stimulus; type: cell-based; conditions: preliminary results
Method: Compound 2 did, in fact, inhibit p70 but not p40 production in human DCs (no inhibition at up to 10 μM Compound 2). […] Therefore, if Compound 2 is acting through c-Rel, we should not observe potent inhibition of IL-12 p40 following STAg stimulation. […] These two results further confirm that the inhibition of IL-12 production by Compound 2 is via the c-Rel pathway.

Rel-B = experiment: Immunoblot of nuclear Rel-B in THP1 cells; type: cell-based, human; conditions: THP1, IFNg+LPS, 100 nM, 6 h
Method: (§2) Rel B and p52 are two members of Rel family, which are preferentially complexed with each other. Like p50 and p65, p52 is found in virtually all cell types, whereas c-Rel and Rel B have only been detected in lymphoid tissues. To determine the effect of Compound 2 on p52 and Rel-B nuclear translocation, THP1 cells were stimulated with IFNg+LPS in either the presence or absence of 100 nM Compound 2, and the distribution of p52 and Rel-B was determined by immunoblotting of nuclear at 6 h post-treatment.
(§3) THP-1 cells were suspended in 20 volumes of buffer A containing 10 mM KCl, 10 mM HEPES (pH 7.9), 1 mM MgCl2, 1 mM dithiothreitol (DTT), 0.1% Nonidet p40 (NP-40), and 0.5 mM phenylmethylsulfonyl fluoride (PMSF) and homogenized and centrifuged at 10,000 rpm at 4 C for 5 min. Nuclear pellets were then suspended in buffer C containing 400 mM NaCl, 20 mM HEPES 9 pH 7.9), 15 mM MgCl2, 0.2 mM EDTA, 1 mM DTT, 25% glycerol, 1 mM PMSF, and 10 ug of leupeptin, 20 ug of pepstatin, and 10 ug/ml antipain, incubated for 30 min at 4 C, and centrifuged at 14,000 rpm for 20 min. The supernatants were dialyzed against buffer D containing 100 mM NaCl, 20 mM HEPES (pH 7.9), 20% glycerol, 1 mM PMSF, and 1 mM DTT.
(§4) The 10% SDS Polyacrylamide gels (Invitrogen) were transferred to Pure Nitrocellulose membrane (BioRed, Hercules, Calif.). […]

p52 = experiment: Immunoblot of nuclear p52 in THP1 cells; type: cell-based, human; conditions: THP1, IFNg+LPS, 100 nM, 6 h
Method: as §2, §3, §4

NFκB binding to p40 promoter probe (gel shift) (NFκB) | SMILES | binding activity of p65 (p65) | IC50 of p40 inhibition with STAg induction relative to IFN-γ/SAC stimulus (IL-12 p40) | nuclear Rel-B (FIG. 11) (Rel-B) | nuclear p52 (FIG. 11) (p52)
did not show any influence | C(=NNc1nc(OCCc2ccccn2)nc(N2CCOCC2)n1)c1c[nH]c2ccccc12 [Compound 1, N-(1H-indol-3-ylmethylene)-N′-[4-morpholin-4-yl-6-(2-pyridin-2-yl-ethoxy)-[1,3,5]triazin-2-yl]-hydrazine] | – | – | – | –
– | Cc1cccc(C=NNc2cc(N3CCOCC3)nc(OCCc3ccccn3)n2)c1 [Compound 2, N-(3-methyl-benzylidene)-N′-[6-morpholin-4-yl-2-(2-pyridin-2-yl-ethoxy)-pyrimidin-4-yl]-hydrazine] | increased binding activity | approximately 1000 times | slightly increased | No significant difference
